Source: patent US12264163B2, “Compounds and methods for treating fibrotic pathologies” (Mayo Foundation for Medical Education and Research, priority 2019, dated 2025)

Assays:
lung fibroblasts = assay: Fibroblast proliferation (counting DAPI nuclei); type: cell-based, human
Procedure: IPF fibroblast and Normal lung fibroblast co-culture proliferation. Cell are prelabelled with fluorescent dyes (red and green) and then cocultured at a ratio of about 1:1 in 96 well plates. Cell counts are determined every 24 hours and plotted as a ratio of IPF/HLF cells. In the control wells the IPF cells outgrow and take over the well. N=2.
Proliferation of lung fibroblasts (IMR-90 cells) measured for 4 days in the presence of GPCR agonists ET-1 (100 nM) and LPA (10 μM)+/−10 μM DHX. Cells were fixed and counted with DAPI at the end of each day. N=3 technical triplicates.
Adult lung fibroblasts plated into 96-well plates, stimulated with 2 ng/mL TGFβ and compounds at the indicated concentration. Proliferation determined by fixing and counting DAPI nuclei using a Cytation 5. N=2.
Fibroblasts were stimulated with 2 ng/mL TGFβ and treated with compound 1 (MS-9) at the indicated concentration (0.1 μM, 1 μM, and 10 μM). Proliferation determined by fixing and counting DAPI nuclei using a Cytation.

CTGF, COL1A1, ACTA2, FN1 = assay: Profibrotic / matrix remodeling gene expression by qPCR in fibroblasts; type: cell-based, human
Procedure: Genes which encode Connective tissue growth factor (CTGF), Collagen I (COL1A1), αSMA (ACTA2), and Fibronectin (FN1) are reduced by 24 hour treatment with DHX (10 μM), +/−SCH 39166 (3 μM). N=3 (****p<0.0001, ***p<0.001, *p<0.05 vs. 0.1% DMSO vehicle control)
IPF patient-derived fibroblasts cultured in media containing 0.1% FBS were stimulated for 24 hours with 2 ng/mL TGFβ and 10 μM DHX prior to RNA isolation. Genes which encode for ECM crosslinking: transglutaminase 2 (TGM2), lysyl oxidase and lysyl oxidase-like enzymes (LOX and LOXL1-4), ECM degradation: uPA (PLAU), tPa (PLAT), cathepsin K (CTSK), and matrix metalloprotease-14 (MMP14) and ECM protease inhibitors: metalloprotease inhibitor 3 (TIMP3), and plasminogen activator inhibitor 1 (SERPINE1) were measured. N=3. (****p<0.0001, ***p<0.001, **p<0.01, *p<0.05 vs. 0.1% DMSO vehicle control non-TGFβ treated), (++++p<0.0001, ++p<0.01, +p<0.05 vs. 0.10% DMSO vehicle control TGFβ treated).
For all other in vitro experiments, cells were treated as indicated prior to RNA isolation using RNeasy Plus Mini Kit (Qiagen) according to manufacturer's instructions. Isolated RNA (250 ng) was then used to synthesize cDNA using SuperScript VILO (Invitrogen). Quantitative PCR was performed using FastStart Essential DNA Green Master (Roche) and analyzed using a LightCycler 96 (Roche). Data are expressed as a fold change by ΔΔCt relative to GAPDH. For in vivo experiments, tissue was immediately frozen, and stored at −80° C. RNA isolation, cDNA synthesis, and qPCR analysis were performed as above.

[1] = test system: Collagen I and Fibronectin; assay: Immuno-ECM: TGFβ-induced collagen I and fibronectin accumulation; type: cell-based, human; conditions: IPF patient-derived fibroblasts, TGFβ 48 hours then DHX 24 hours
Procedure: IPF patient-derived fibroblasts grown at confluence were pre-stimulated with 2 ng/mL TGFβ for 48 hours and then treated with DHX (10 μM)+2 ng/mL TGFβ for an additional 24 hours prior to fixation. Cell derived matrix is measured using antibodies for Collagen I and Fibronectin. […] Representative traction maps are shown from cells plated onto 6.4 kPa matrices treated with the indicated concentration of DHX. RMS tractions were determined in two independent experiments; box and whisker plots show min to max, quartile, and mean from one representative experiment (****p<0.0001, *p<0.05 vs. 0.1% DMSO vehicle control).
Immuno-ECM Adapting from previously published methods, IPF patient-derived fibroblasts were plated to confluence in clear-bottom 96-well plates. After cells attached, the medium was swapped for EMEM containing 0.10% FBS±2 ng/mL TGF-β. After 48 hours the indicated concentration of DHX or DMSO control was added to each well and incubated for 24 hours. WST-1 viability reagent was added to each well (Sigma-Aldrich) and measured on a Flexstation 3 (Molecular Devices) plate reader. […] Plates were imaged via a Li-Cor OdysseyXL system with quantification performed via densitometry. Data are expressed as IR intensity relative to WST-1 signal absorbance in order to account for any potential compound toxicity.

αSMA = assay: TGFβ-induced αSMA+ stress fiber formation in fibroblasts; type: cell-based, human; conditions: TGFβ 72 hours, DHX from 48-72 hours
Procedure: Media was then exchanged for the indicated conditions for each experiment. Cells were fixed in 3.7% formalin (Sigma-Aldrich), permeabilized in 0.25% Triton X-100 (Sigma-Aldrich) and then blocked with 1% BSA for 1 h. Cells or tissue sections were incubated overnight with mouse monoclonal antibody against αSMA (Sigma-Aldrich F3777), and/or a rabbit monoclonal antibody against YAP/TAZ (Cell Signaling D24E4) diluted 1:200 in PBS with 1% BSA. Cells were then washed and exposed to flourescence-conjugated secondary antibodies (Invitrogen) diluted 1:1000 and DAPI (Thermo Fisher Scientific). Images were taken with a Cytation5 (BioTek) microscope. For scoring αSMA positive cells (FIG. 12), an observer blinded to the treatment conditions counted αSMA-positive cells using a visual threshold for bright fibrous staining; a minimum of 200 cells was counted for each condition. YAP/TAZ localization was quantified (FIGS. 6-10, 24-26, and 29-30) using Gen5 (Biotek) software. Images were taken at 4× magnification of both DAPI and YAP/TAZ staining. […] Quantification of double positive (YAP/TAZ and αSMA) cells from lung tissue sections (FIG. 17-21) was performed similarly; however separate thresholds were established for both YAP/TAZ and αSMA. A minimum of 4000 cells was quantified for each mouse.

D1 receptor = conditions: cited from earlier work

Structure (SMILES): Oc1cc2c(cc1O)[C@H]1c3ccccc3CN[C@@H]1CC2 (racemic) [Dihydrexidine]
- proliferation of lung fibroblasts (lung fibroblasts; 4 days, ET-1, LPA, TGFβ or CTGF +/− 10 μM DHX): blocks proliferation
- IPF fibroblast and normal lung fibroblast co-culture proliferation (lung fibroblasts; co-culture about 1:1, ratio of IPF/HLF cells every 24 hours): selectively slows proliferation in IPF fibroblasts
- expression of matrix crosslinking, protease inhibitor and matrix degradation genes (CTGF, COL1A1, ACTA2, FN1; IPF patient derived fibroblasts, 2 ng/mL TGFβ + 10 μM DHX, 24 hours): reversed the effects of TGFβ
- expression of profibrotic genes CTGF, COL1A1, ACTA2, FN1 (CTGF, COL1A1, ACTA2, FN1; IPF patient-derived lung fibroblasts, 10 μM, 24 hour): reduced
- profibrotic gene expression and extracellular matrix accumulation with constitutively active TAZ (CTGF, COL1A1, ACTA2, FN1; NIH-3T3 cells expressing doxycycline-inducible TAZ4SA): no effect on profibrotic gene expression or extracellular matrix accumulation
- profibrotic gene expression in human dermal fibroblasts (CTGF, COL1A1, ACTA2, FN1; human dermal fibroblasts, 24 hours +/− 2 ng/mL TGFβ): blocks profibrotic gene expression
- TGFβ-stimulated accumulation of collagen I and fibronectin [1]: dose-dependently reversed
- TGFβ-induced myofibroblastic transition (αSMA+ stress fibers) (αSMA): reversed this transition
- efficacy at elevating cAMP (D1 receptor) (D1 receptor): full magnitude cAMP response
